This note sets out measurements from US5591756A, “LTB4 synthesis inhibitors” (G. D. Searle & Co., priority 1995, dated 1997).

SMILES strings stand for the structures.

Assay [1] addresses T1, Human synovial fluid phospholipase A2 (HSF-PLA2) (Homo sapiens, UniProt P14555).
T1 construct: Human synovial fluid phospholipase A2 was purified approximately 5000 fold; from tissue; host or cells: human synovial fluid (enzyme purified about 5000 fold)
T1 sequence (P14555 21-144): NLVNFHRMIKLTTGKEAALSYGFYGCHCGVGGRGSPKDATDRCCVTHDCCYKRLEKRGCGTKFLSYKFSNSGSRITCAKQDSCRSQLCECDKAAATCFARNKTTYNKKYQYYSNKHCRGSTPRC
Nature of the assay: Human synovial fluid phospholipase A2 (HSF-PLA2) assay. Type of assay: biochemical. The conditions noted are these: [14C]-oleate-labeled E. coli substrate, pH 7.0, 5 min pre-incubation, 37° C., 30 minutes. On the procedure: Human synovial fluid phospholipase A2 was purified approximately 5000 fold following the procedures of Franson et al., Lung 160, 275-284 (1982) and Fawzy et al., Bio Phys. J. 49, 533a (1986). Following purification the enzyme activity was measured by established methodology using [^14 C]-oleate-labeled, autoclaved E. coli as the substrate as also shown in the above noted references. The assay was performed in a final volume of 100 μl containing 50 mM HEPES (pH 7.0), 150 mM NaCl, 5 mM CaCl2, 7 nM [^14 C]-oleate-labeled E. coli phospholipid and with or without the compound from one of the examples herein undergoing an assay. The compound or control vehicle was pre-incubated with the PLA2 for 5 minutes followed by addition of the E. coli substrate to initiate the reaction. The reaction was maintained at 37° C. for 30 minutes and then terminated by the addition of 2 ml tetrahydrofuran (THF). The reaction product, [^14 C]-oleic acid, was extracted using a 1 ml Bond Elut-NH2 Solid phase extraction column. The IC50 value for the compound (mean±S.E.) is given in the following Table and represents the concentration of the compound required to inhibit 50% of the PLA2 activity.

For assay [2], the system named is LTB4 Biosynthesis, Human PMNs. Nature of the assay: LTB4 biosynthesis inhibition in human PMNs. Type of assay: cell-based. To be noted: read-out: LTB4 Biosynthesis inhibition cells IC50, Human PMNs.
The test system of assay [3] is LTB4 Biosynthesis, HL-60 cells. Nature of the assay: Assay for LTB4 (and PGE2) production by HL-60 cells. Type of assay: cell-based. To be noted: Homo sapiens; differentiated HL-60 cells, 10 min pre-incubation 37° C., stimulated with 5×10^-6 M calcium ionophore A23187, radioimmunoassay; read-out: LTB4 Biosynthesis inhibition cells IC50, HL60 Cells. On the procedure: HL-60 cells were induced to differentiate into granulocytes by a 4 day incubation with 0.8% (v/v) N,N-dimethyl formamide as disclosed in Fontana et al., Proc. Natl. Acad. Sci. 78. (6): 3863-3866 (1981); Agins et al., Biochem. Biophys. Res. Comm. 126, 143-149 (1985); and Bonser et al., Biochemistry 20: 5297-5301 (1981). Prior to performing the assay, differentiated HL-60 cells were washed once with Hanks' balanced salt solution containing 0.35 mg/ml sodium bicarbonate and 10 mM HEPES pH 7.35 (HBSS). HL-60 cells (3×10^6 cells/ml) were pre-incubated with the compound tested or a control vehicle at 37° C. for 10 minutes, followed by 5 minute incubation with 5×10^-6 M calcium ionophore A23187 in a final volume of 1.0 ml. After incubation, the cells were pelleted by centrifugation and the LTB4 and PGE2 in the supernatent were quantified by radioimmunoassay. IC50 values (means±S.E.) for compounds herein that were tested are shown in the following Table and represent the concentrations of the compound required to inhibit 50% of LTB4 or PGE2 production by HL-60 cells stimulated with the calcium ionophore A23187.

A word on the IC50: it is the concentration that inhibits the measured activity by half. In turn, `CCCCCCCCCCCCCC(=O)CC(=O)c1ccc(C(=O)O)cc1` [Example 4, 4-(1,3-dioxohexadecanyl)benzoic acid] registered an IC50 in assay [1] of 90000 nM.
Take `CCCCCCCCCCCCCC(=O)CC(=O)c1cccc(C(=O)O)c1` [Example 5, 3-(1,3-dioxohexadecanyl)benzoic acid]: the IC50 worked out at 1700 nM in assay [1], 1200 nM in assay [2] and 1500 nM in assay [3].
As to `CCCCCCCCCCCCCC(=O)CC(=O)c1ccc(C(=O)O)o1` [Example 9, 5-(1,3-dioxohexadecanyl)-2-furancarboxylic acid], the IC50 in assay [1] came to 2700 nM; in assay [2], 3500 nM; in assay [3] it was 4700 nM.
Take `CCCCCCCCCCCCCC(=O)CC(=O)c1ccc(C(=O)O)s1` [Example 15, 5-(1,3-dioxohexadecyl)-2-thiophenecarboxylic acid]: the IC50 in assay [1] is 1900 nM; in assay [2], 2700 nM.
In the case of `CCCCCCCCCCCCCC(=O)CC(=O)c1cccc(-c2nnn[nH]2)c1` [Example 19, 1-[3-(1H-tetrazol-5-yl)phenyl]-1,3-hexadecadione], the IC50 in assay [1] worked out at 48000 nM; in assay [2], 3000 nM.
On to `O=C(CCCCCCCCCOc1ccccc1)CC(=O)c1ccc(C(=O)O)cc1` [Example 22, 4-(1,3-dioxo-12-phenoxydodecyl)benzoic acid], for which the IC50 is 16000 nM in assay [1] and 2700 nM in assay [2].
